Measurements: patent US20240199649A1 (Biosplice Therapeutics, Inc., priority 2022, published 2024)

Biological target: recombinant DYRK1A kinase (Homo sapiens (Human), UniProt Q13627)
Assay: DYRK1A kinase assay (Ser/Thr 18 peptide Z-lyte FRET assay)
Type: biochemical
Details: DYRK1A 0.25 μg/mL, ATP 15 μM, Ser/Thr peptide 18 4 μM; one hour at room temperature; 11-point dose-response, duplicate
How it was run: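 Z-lyte FRET assay on Ser/Thr 18 peptide, kinase activity read as coumarin/fluorescein emission ratio; compounds incubated 1 h at room temperature, then development reagent 1 h, in duplicate. Phosphorylated and unphosphorylated peptide served as controls; IC50 by non-linear regression of dose-response curves.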

| IC50 [nM] | SMILES |
| --- | --- |
| 2.1 | Nc1nc(N[C@@H]2CCN(C3COC3)CC2(F)F)nn2ccc(-c3ccc4nnn(CC(F)F)c4n3)c12 [Compound 854, (R)—N^2-(3,3-Difluoro-1-(oxetan-3-yl)piperidin-4-yl)-5-(3-(2,2-difluoroethyl)-3H-[1,2,3]triazolo[4,5-b]pyridin-5-yl)pyrrolo[2,1-f][1,2,4]triazine-2,4-diamine] |
| 1.5 | CN1CC[C@@H](Nc2nc(N)c3c(-c4ccc5ncn(CCF)c5n4)ccn3n2)C(F)(F)C1 [Compound 985, (R)—N^2-(3,3-Difluoro-1-methylpiperidin-4-yl)-5-(3-(2-fluoroethyl)-3H-imidazo[4,5-b]pyridin-5-yl)pyrrolo[2,1-f][1,2,4]triazine-2,4-diamine] |
| 0.7 | C[C@]1(O)CC[C@H](Nc2nc(N)c3c(-c4ccc5ncn(CC(F)F)c5n4)ccn3n2)CC1 [Compound 986, (1r,4r)-4-((4-Amino-5-(3-(2,2-difluoroethyl)-3H-imidazo[4,5-b]pyridin-5-yl)pyrrolo[2,1-f][1,2,4]triazin-2-yl)amino)-1-methylcyclohexan-1-ol] |
| 0.8 | CC(=O)N1C[C@H](F)[C@H](Nc2nc(N)c3c(-c4ccc5ncn(CC(F)F)c5n4)ccn3n2)C1 [Compound 987, 1-((3R,4S)-3-((4-Amino-5-(3-(2,2-difluoroethyl)-3H-imidazo[4,5-b]pyridin-5-yl)pyrrolo[2,1-f][1,2,4]triazin-2-yl)amino)-4-fluoropyrrolidin-1-yl)ethan-1-one] |
| 0.6 | Nc1nc(N[C@@H]2CN(C3COC3)C[C@@H]2F)nn2ccc(-c3ccc4ncn(CC(F)F)c4n3)c12 [Compound 988, 5-(3-(2,2-Difluoroethyl)-3H-imidazo[4,5-b]pyridin-5-yl)-N^2-((3R,4S)-4-fluoro-1-(oxetan-3-yl)pyrrolidin-3-yl)pyrrolo[2,1-f][1,2,4]triazine-2,4-diamine] |
| 0.6 | Nc1nc(N[C@H]2CCN(C3COC3)C[C@H]2F)nn2ccc(-c3ccc4ncn(CC(F)F)c4n3)c12 [Compound 990, 5-(3-(2,2-Difluoroethyl)-3H-imidazo[4,5-b]pyridin-5-yl)-N^2-((3R,4S)-3-fluoro-1-(oxetan-3-yl)piperidin-4-yl)pyrrolo[2,1-f][1,2,4]triazine-2,4-diamine] |
| 0.4 | CN1CC[C@@H](Nc2nc(N)c3c(-c4ccc5ncn(CC(F)F)c5n4)ccn3n2)C(F)(F)C1 [Compound 991, (R)—N^2-(3,3-Difluoro-1-methylpiperidin-4-yl)-5-(3-(2,2-difluoroethyl)-3H-imidazo[4,5-b]pyridin-5-yl)pyrrolo[2,1-f][1,2,4]triazine-2,4-diamine] |
| 0.7 | CC(=O)N1CC[C@@H](Nc2nc(N)c3c(-c4ccc5ncn(CC(F)F)c5n4)ccn3n2)C(F)(F)C1 [Compound 992, (R)-1-(4-((4-Amino-5-(3-(2,2-difluoroethyl)-3H-imidazo[4,5-b]pyridin-5-yl)pyrrolo[2,1-f][1,2,4]triazin-2-yl)amino)-3,3-difluoropiperidin-1-yl)ethan-1-one] |
| 0.6 | Nc1nc(N[C@@H]2CCN(C3COC3)CC2(F)F)nn2ccc(-c3ccc4ncn(CC(F)F)c4n3)c12 [Compound 993, (R)—N^2-(3,3-Difluoro-1-(oxetan-3-yl)piperidin-4-yl)-5-(3-(2,2-difluoroethyl)-3H-imidazo[4,5-b]pyridin-5-yl)pyrrolo[2,1-f][1,2,4]triazine-2,4-diamine] |
| 1.2 | CN1CC[C@@H](Nc2nc(N)c3c(-c4ccc5ncn(CC(F)(F)F)c5n4)ccn3n2)C(F)(F)C1 [Compound 994, (R)—N^2-(3,3-Difluoro-1-methylpiperidin-4-yl)-5-(3-(2,2,2-trifluoroethyl)-3H-imidazo[4,5-b]pyridin-5-yl)pyrrolo[2,1-f][1,2,4]triazine-2,4-diamine] |
| 0.8 | Cc1nc2ccc(-c3ccn4nc(N[C@H]5CC[C@](C)(O)CC5)nc(N)c34)nc2n1CCF [Compound 995, (1r,4r)-4-((4-Amino-5-(3-(2-fluoroethyl)-2-methyl-3H-imidazo[4,5-b]pyridin-5-yl)pyrrolo[2,1-f][1,2,4]triazin-2-yl)amino)-1-methylcyclohexan-1-ol] |
